Laboratory results: patent US10869844B2, “Methods for the treatment of depression” (Janssen Pharmaceutica NV, priority 2014, dated 2020)
Like-named read-outs stand apart in the source and are kept apart here.

Legend:
[1] = test system: adult subjects with TRD; type: in vivo, human; settings: for Non-responders % / Non-responders N / Responders % (MADRS total score reduction >50% TRD2001, ≥50% TRD2002) / Responders N (MADRS total score reduction >50% TRD2001, ≥50% TRD2002): after first infusion (Day 2 TRD2001, Day 3 or 4 TRD2002)
Description: (§1) Association between changes in MADRS total score from baseline and the SNP rs6265 after a single dose was evaluated in placebo subjects and active subjects using an ANCOVA model under a dominant model with baseline MADRS total score, and grouped genotype (Val/Val or Met carrier). A statistically significant result was found in active subjects (p=0.02).
as §1, with “the % responders” for “changes in MADRS total score from baseline”, “a logistic regression” for “an ANCOVA”, “score” for “score,”, “(p=0.03).” for “(p=0.02).”
Association between the % remitters and the SNP rs6265 after a single dose was evaluated in placebo subjects and as well as in active subjects using a logistic regression model under a dominant model with baseline MADRS total score and grouped genotype (Val/Val or Met carrier).

[2] = test system: adult subjects with TRD; settings: for Non-remitters % / Non-remitters No. / Non-responders % / Non-responders No. / Remitters % (MADRS total score 10) / Remitters No. (MADRS total score 10) / Responders % (MADRS total score reduction >50%) / Responders No. (MADRS total score reduction >50%) / Duration of response, survival function estimate: Failure / Duration of response, survival function estimate: Survival: Met carriers
[3] = Met carriers (of 6), esketamine subjects per Day 1 randomization
[4] = DAY 02, randomized to esketamine Day 1
[5] = DAY 07, randomized to esketamine Day 1
[6] = DAY 07, randomized to placebo Day 1, esketamine from day 4 onward
[7] = DAY 17, randomized to esketamine Day 1
[8] = DAY 17, randomized to placebo Day 1, esketamine from day 4 onward
[9] = DAY 35, randomized to esketamine Day 1
[10] = DAY 35, randomized to placebo Day 1, esketamine from day 4 onward
[11] = Day 0 after Day 17, all responders (Day 17)
[12] = Day 0 after Day 17, esketamine responders (Day 17) per Day 1 randomization
[13] = Day 4 after Day 17, all responders (Day 17)
[14] = Day 4 after Day 17, esketamine responders (Day 17) per Day 1 randomization

CN[C@]1(c2ccccc2Cl)CCCCC1=O.Cl [Esketamine, (S)-2-(2-chlorophenyl)-2-(methylamino)cyclohexanone hydrochloride]
Non-responders % ([1]; Met carriers): 88.9%
Non-responders N ([1]; Met carriers): 8
Responders % (MADRS total score reduction >50% TRD2001, ≥50% TRD2002) ([1]; Met carriers): 11.1%
Responders N (MADRS total score reduction >50% TRD2001, ≥50% TRD2002) ([1]; Met carriers): 1
Non-responders % ([1]; Val/Val): 25.0%
Non-responders N ([1]; Val/Val): 2
Responders % (MADRS total score reduction >50% TRD2001, ≥50% TRD2002) ([1]; Val/Val): 75.0%
Responders N (MADRS total score reduction >50% TRD2001, ≥50% TRD2002) ([1]; Val/Val): 6
Clinical response associated with Met allele of Val66Met rs6265 ([1]; acute, single dose administration): smaller clinical response
Maintenance of remission, Val/Val vs Met carriers ([2]; Day 35): Remission was maintained longer in Val/Val than in Met carriers
Subjects who remained well, number ([2]; Met carrier group, at Day 21, from 6): 3
Day 17 responders who maintained response status up to Day 35, % [2, 3]: 33.3%
Day 17 responders who maintained response status up to Day 35, number [2, 3]: 2
Non-remitters % [2, 4]: 88.9%
Non-remitters No. [2, 4]: 8
Non-responders % [2, 4]: 88.9%
Non-responders No. [2, 4]: 8
Remitters % (MADRS total score 10) [2, 4]: 11.1%
Remitters No. (MADRS total score 10) [2, 4]: 1
Responders % (MADRS total score reduction >50%) [2, 4]: 11.1%
Responders No. (MADRS total score reduction >50%) [2, 4]: 1
Non-remitters % [2, 5]: 77.8%
Non-remitters No. [2, 5]: 7
Non-responders % [2, 5]: 66.7%
Non-responders No. [2, 5]: 6
Remitters % (MADRS total score 10) [2, 5]: 22.2%
Remitters No. (MADRS total score 10) [2, 5]: 2
Responders % (MADRS total score reduction >50%) [2, 5]: 33.3%
Responders No. (MADRS total score reduction >50%) [2, 5]: 3
Non-remitters % [2, 6]: 100.0%
Non-remitters No. [2, 6]: 1
Non-responders No. [2, 6]: 0
Remitters No. (MADRS total score 10) [2, 6]: 0
Responders % (MADRS total score reduction >50%) [2, 6]: 100.0%
Responders No. (MADRS total score reduction >50%) [2, 6]: 1
Non-remitters % [2, 7]: 77.8%
Non-remitters No. [2, 7]: 7
Non-responders % [2, 7]: 33.3%
Non-responders No. [2, 7]: 3
Remitters % (MADRS total score 10) [2, 7]: 22.2%
Remitters No. (MADRS total score 10) [2, 7]: 2
Responders % (MADRS total score reduction >50%) [2, 7]: 66.7%
Responders No. (MADRS total score reduction >50%) [2, 7]: 6
Non-remitters No. [2, 8]: 0
Non-responders No. [2, 8]: 0
Remitters % (MADRS total score 10) [2, 8]: 100.0%
Remitters No. (MADRS total score 10) [2, 8]: 1
Responders % (MADRS total score reduction >50%) [2, 8]: 100.0%
Responders No. (MADRS total score reduction >50%) [2, 8]: 1
Non-remitters % [2, 9]: 77.8%
Non-remitters No. [2, 9]: 7
Non-responders % [2, 9]: 55.6%
Non-responders No. [2, 9]: 5
Remitters % (MADRS total score 10) [2, 9]: 22.2%
Remitters No. (MADRS total score 10) [2, 9]: 2
Responders % (MADRS total score reduction >50%) [2, 9]: 44.4%
Responders No. (MADRS total score reduction >50%) [2, 9]: 4
Non-remitters No. [2, 10]: 0
Non-responders No. [2, 10]: 0
Remitters % (MADRS total score 10) [2, 10]: 100.0%
Remitters No. (MADRS total score 10) [2, 10]: 1
Responders % (MADRS total score reduction >50%) [2, 10]: 100.0%
Responders No. (MADRS total score reduction >50%) [2, 10]: 1
Duration of response, survival function estimate: Failure [2, 11]: 0
Duration of response, survival function estimate: Survival [2, 11]: 1.0000
Duration of response, survival function estimate: Failure [2, 12]: 0
Duration of response, survival function estimate: Survival [2, 12]: 1.0000
Duration of response, survival function estimate: Failure [2, 13]: 0.4286
Duration of response, survival function estimate: Survival [2, 13]: 0.5714
Duration of response, survival function estimate: Failure [2, 14]: 0.5000
Duration of response, survival function estimate: Survival [2, 14]: 0.5000
